Experimental data as given in ChEMBL document CHEMBL1201862, “PubChem BioAssay data set” (2004).
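A five-concentration, 48-hour dose response in 96-well plates underlies each endpoint, interpolated linearly between surrounding concentrations. The concentration for 50% growth inhibition is given as GI50.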 Activity calls are given as the source filed them. No stated cut-off is given here; in the data, active = GI50 up to about 1.1 µM and inactive = higher.

Experiments:
Assay in all cases: NCI-60 cell line screen, 48 h
MDA-MB-231 = test system: MDA-MB-231
KM12 = test system: KM12
MOLT-4 = test system: MOLT-4
OVCAR-8 = test system: OVCAR-8
DU-145 = test system: DU-145
XF498 = test system: XF498
SNB-78 = test system: SNB-78
OVCAR-3 = test system: OVCAR-3
NCI-H23 = test system: NCI-H23
IGROV-1 = test system: IGROV-1
HT-29 = test system: HT-29
DLD-1 = test system: DLD-1
TK-10 = test system: TK-10
EKVX = test system: EKVX
SF-539 = test system: SF-539
NCI/ADR-RES = test system: NCI/ADR-RES
NCI-H522 = test system: NCI-H522
A498 = test system: A498
SK-MEL-28 = test system: SK-MEL-28
SR = test system: SR
SNB-75 = test system: SNB-75
RPMI-8226 = test system: RPMI-8226
SF-268 = test system: SF-268
UACC-62 = test system: UACC-62
M19-MEL = test system: M19-MEL
A549 = test system: A549
MDA-N = test system: MDA-N
Malme-3M = test system: Malme-3M
HCT-116 = test system: HCT-116
HOP-92 = test system: HOP-92
PC-3 = test system: PC-3
U-251 = test system: U-251
DMS-273 = test system: DMS-273
NCI-H460 = test system: NCI-H460
SW-620 = test system: SW-620
M14 = test system: M14
OVCAR-4 = test system: OVCAR-4
SNB-19 = test system: SNB-19
UO-31 = test system: UO-31
SF-295 = test system: SF-295
RXF 393 = test system: RXF 393
Hs-578T = test system: Hs-578T
HOP-62 = test system: HOP-62
T47D = test system: T47D
HCT-15 = test system: HCT-15
LOX IMVI = test system: LOX IMVI
HOP-18 = test system: HOP-18
SK-MEL-5 = test system: SK-MEL-5
MDA-MB-435 = test system: MDA-MB-435
MCF7 = test system: MCF7
CCRF-CEM = test system: CCRF-CEM
OVCAR-5 = test system: OVCAR-5
NCI-H226 = test system: NCI-H226
SN12C = test system: SN12C
KM-20L2 = test system: KM-20L2
DMS-114 = test system: DMS-114
UACC-257 = test system: UACC-257
BT-549 = test system: BT-549
COLO 205 = test system: COLO 205
LXFL 529 = test system: LXFL 529
CAKI-1 = test system: CAKI-1
786-0 = test system: 786-0
HCC 2998 = test system: HCC 2998
SK-OV-3 = test system: SK-OV-3
SK-MEL-2 = test system: SK-MEL-2
ACHN = test system: ACHN
K562 = test system: K562
HL-60 = test system: HL-60

Cc1cc(NC(=O)C(=O)Cc2nc3ccccc3s2)ccc1Cl
GI50 (MDA-MB-231): > 100 µM (inactive)
GI50 (KM12): > 100 µM (inactive)
GI50 (MOLT-4): > 100 µM (inactive)
GI50 (OVCAR-8): > 100 µM (inactive)
GI50 (DU-145): > 100 µM (inactive)
GI50 (XF498): > 100 µM (inactive)
GI50 (SNB-78): > 100 µM (inactive)
GI50 (OVCAR-3): > 100 µM (inactive)
GI50 (NCI-H23): > 100 µM (inactive)
GI50 (IGROV-1): > 100 µM (inactive)
GI50 (HT-29): > 100 µM (inactive)
GI50 (DLD-1): > 100 µM (inactive)
GI50 (TK-10): > 100 µM (inactive)
GI50 (EKVX): > 100 µM (inactive)
GI50 (SF-539): > 100 µM (inactive)
GI50 (NCI/ADR-RES): > 100 µM (inactive)
GI50 (NCI-H522): > 100 µM (inactive)
GI50 (A498): > 100 µM (inactive)
GI50 (SK-MEL-28): > 100 µM (inactive)
GI50 (SR): > 100 µM (inactive)
GI50 (SNB-75): > 100 µM (inactive)
GI50 (RPMI-8226): > 100 µM (inactive)
GI50 (SF-268): > 100 µM (inactive)
GI50 (UACC-62): > 100 µM (inactive)
GI50 (M19-MEL): > 100 µM (inactive)
GI50 (A549): > 100 µM (inactive)
GI50 (MDA-N): > 100 µM (inactive)
GI50 (Malme-3M): > 100 µM (inactive)
GI50 (HCT-116): > 100 µM (inactive)
GI50 (HOP-92): > 100 µM (inactive)
GI50 (PC-3): > 100 µM (inactive)
GI50 (U-251): > 100 µM (inactive)
GI50 (DMS-273): > 100 µM (inactive)
GI50 (NCI-H460): > 100 µM (inactive)
GI50 (SW-620): > 100 µM (inactive)
GI50 (M14): > 100 µM (inactive)
GI50 (OVCAR-4): > 100 µM (inactive)
GI50 (SNB-19): > 100 µM (inactive)
GI50 (UO-31): > 100 µM (inactive)
GI50 (SF-295): > 100 µM (inactive)
GI50 (RXF 393): > 100 µM (inactive)
GI50 (Hs-578T): > 100 µM (inactive)
GI50 (HOP-62): > 100 µM (inactive)
GI50 (T47D): > 100 µM (inactive)
GI50 (HCT-15): > 100 µM
GI50 (LOX IMVI): > 100 µM (inactive)
GI50 (HOP-18): 21.8 µM (inactive)
GI50 (SK-MEL-5): > 100 µM (inactive)
GI50 (MDA-MB-435): > 100 µM (inactive)
GI50 (MCF7): > 100 µM (inactive)
GI50 (CCRF-CEM): > 100 µM (inactive)
GI50 (OVCAR-5): > 100 µM (inactive)
GI50 (NCI-H226): > 100 µM (inactive)
GI50 (SN12C): > 100 µM (inactive)
GI50 (KM-20L2): > 100 µM (inactive)
GI50 (DMS-114): > 100 µM (inactive)
GI50 (UACC-257): > 93.3 µM (inactive)
GI50 (BT-549): > 100 µM (inactive)
GI50 (COLO 205): > 100 µM (inactive)
GI50 (LXFL 529): > 100 µM (inactive)
GI50 (CAKI-1): > 100 µM (inactive)
GI50 (786-0): > 100 µM (inactive)
GI50 (HCC 2998): > 100 µM (inactive)
GI50 (SK-OV-3): > 100 µM (inactive)
GI50 (SK-MEL-2): > 100 µM (inactive)
GI50 (ACHN): > 100 µM (inactive)
GI50 (K562): > 100 µM (inactive)

Cc1nc(Nc2ccc(Cl)cc2)sc1C(=O)NNc1ccc([N+](=O)[O-])cc1[N+](=O)[O-]
GI50 (KM12): 15.8 µM (inactive)
GI50 (MOLT-4): 15 µM (inactive)
GI50 (OVCAR-8): 21.4 µM (inactive)
GI50 (XF498): 16.9 µM (inactive)
GI50 (SNB-78): 39.1 µM (inactive)
GI50 (OVCAR-3): 19.3 µM (inactive)
GI50 (NCI-H23): 17.3 µM (inactive)
GI50 (IGROV-1): 20.9 µM (inactive)
GI50 (DLD-1): 14.2 µM (inactive)
GI50 (TK-10): 19.8 µM (inactive)
GI50 (EKVX): 14.9 µM (inactive)
GI50 (SF-539): 17.3 µM (inactive)
GI50 (NCI-H522): 14 µM (inactive)
GI50 (A498): 15.9 µM (inactive)
GI50 (SK-MEL-28): 19.9 µM (inactive)
GI50 (SNB-75): 16.7 µM (inactive)
GI50 (RPMI-8226): 18.2 µM (inactive)
GI50 (SF-268): 18.7 µM (inactive)
GI50 (UACC-62): 14.3 µM (inactive)
GI50 (M19-MEL): 22 µM (inactive)
GI50 (A549): 16.6 µM (inactive)
GI50 (Malme-3M): 20.7 µM (inactive)
GI50 (HCT-116): 13.8 µM (inactive)
GI50 (HOP-92): 23.6 µM (inactive)
GI50 (U-251): 15.6 µM (inactive)
GI50 (DMS-273): 19.5 µM (inactive)
GI50 (NCI-H460): 18 µM (inactive)
GI50 (SW-620): 22 µM (inactive)
GI50 (M14): 24.7 µM (inactive)
GI50 (OVCAR-4): 18.4 µM (inactive)
GI50 (SNB-19): 16.7 µM (inactive)
GI50 (UO-31): 14.2 µM (inactive)
GI50 (SF-295): 18.1 µM (inactive)
GI50 (RXF 393): 16.3 µM (inactive)
GI50 (HOP-62): 12.2 µM (inactive)
GI50 (LOX IMVI): 15.1 µM (inactive)
GI50 (HOP-18): 14 µM (inactive)
GI50 (SK-MEL-5): 15.6 µM (inactive)
GI50 (CCRF-CEM): 17.8 µM (inactive)
GI50 (OVCAR-5): 16.3 µM (inactive)
GI50 (NCI-H226): 15.7 µM (inactive)
GI50 (SN12C): 17.7 µM (inactive)
GI50 (KM-20L2): 16.2 µM (inactive)
GI50 (DMS-114): 14.6 µM (inactive)
GI50 (UACC-257): 16.4 µM (inactive)
GI50 (HL-60): 16 µM (inactive)
GI50 (COLO 205): 19.8 µM (inactive)
GI50 (LXFL 529): 17.1 µM (inactive)
GI50 (CAKI-1): 23.6 µM (inactive)
GI50 (786-0): 16.3 µM (inactive)
GI50 (HCC 2998): 16.3 µM (inactive)
GI50 (SK-OV-3): 29.2 µM (inactive)
GI50 (SK-MEL-2): 17.9 µM (inactive)
GI50 (ACHN): 17.3 µM (inactive)
GI50 (K562): 16.8 µM (inactive)
